# Measured values: patent publication US8247211B2, “Glycopeptide antibiotics” (American Cyanamid Company, priority 2001, dated 2012)
# How the values were obtained:
# Assay in all cases: In vitro antibacterial evaluation: minimum inhibitory concentration (MIC), broth dilution method
# Type in all cases: cell-based
# [1] = system: Enterococcus sp.; details: 18 hours at 35° C.
# Procedure, shortened: (§1)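 Test strains, among them recent clinical isolates carrying methicillin, penicillin and/or vancomycin resistance, were inoculated at 5×10^5 CFU/mL. A broth dilution series spanning 64-0.06 μg/mL in Muller-Hinton II […] (NCCLS M7-A2) defined the MIC as the lowest growth-inhibiting concentration.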
# [2] = system: Escherichia coli; details: 18 hours at 35° C.
# Procedure, shortened: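 Following NCCLS approved standard M7-A2, compounds are serially diluted from 64 to 0.06 μg/mL in Muller-Hinton II […] and inoculated at 5×10^5 CFU/mL; the MIC is the minimum concentration at which growth is inhibited.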
# [3] = system: Streptococcus sp.; details: 18 hours at 35° C.
# Procedure, shortened: as §1
# [4] = system: Staphylococcus sp.; details: for MIC Staphylococcus aureus (ATCC 29213): strain ATCC 29213; for MIC Staphylococcus aureus (GC 1131): strain GC 1131; for MIC Staphylococcus aureus (GC 3051): strain GC 3051; for MIC Staphylococcus aureus (GC 3053): strain GC 3053; for MIC Staphylococcus aureus (GC 4541): strain GC 4541; for MIC Staphylococcus aureus (GC 4542): strain GC 4542; for MIC Staphylococcus aureus (GC 4544): strain GC 4544; for MIC Staphylococcus aureus (GC 4545): strain GC 4545
# Procedure, shortened: as §1
# [5] = broth dilution, 5×10^5 CFU/mL, 18 hours at 35° C.
# [6] = broth dilution, 18 hours at 35° C.
# [7] = broth dilution, inoculum 5×10^5 CFU/mL
smiles,measurement,setting,value
CC(c1ccccc1)C1NC(=O)CNC(=O)C(CO)NC(=O)C(C(O)C2CNC(=N)N2C2OC(CO)C(O)C(O)C2O)NC(=O)C(C(O)C2CNC(=N)N2)NC(=O)C(Cc2ccc(OC3OC(CO)C(OC4OC(CO)C(O)C5OC(CC67CC8CC(CC(C8)C6)C7)OC45)C(O)C3O)cc2)NC1=O (centres unmarked) [Example 128],MIC Enterococccus avium (GC 4558),"[1]; broth dilution, 5×10^5 CFU/mL",4 µg/mL
same,MIC Enterococccus faecalis (ATCC 29212),"[1]; broth dilution, 5×10^5 CFU/mL",4 µg/mL
same,MIC Enterococccus faecalis (GC 2691),"[1]; broth dilution, 5×10^5 CFU/mL",4 µg/mL
same,MIC Enterococccus faecalis (GC 3059),"[1]; broth dilution, 5×10^5 CFU/mL",4 µg/mL
same,MIC Enterococccus faecalis (GC 4552),"[1]; broth dilution, 5×10^5 CFU/mL",4 µg/mL
same,MIC Enterococccus faecalis (GC 4553),"[1]; broth dilution, 5×10^5 CFU/mL",4 µg/mL
same,MIC Enterococccus faecalis (GC 4554),"[1]; broth dilution, 5×10^5 CFU/mL",4 µg/mL
same,MIC Enterococccus faecalis (GC 6189),"[1]; broth dilution, 5×10^5 CFU/mL",4 µg/mL
same,MIC Enterococccus faecium (GC 2243),"[1]; broth dilution, 5×10^5 CFU/mL",4 µg/mL
same,MIC Enterococccus faecium (GC 4556),"[1]; broth dilution, 5×10^5 CFU/mL",4 µg/mL
same,MIC Enterococccus faecium (GC 4557),"[1]; broth dilution, 5×10^5 CFU/mL",4 µg/mL
same,MIC Enterococcus faecalis (GC 2242),"[1]; broth dilution, 5×10^5 CFU/mL",4 µg/mL
same,MIC Escherichia coli (ATCC 25922),[2]; 5×10^5 CFU/mL,32 µg/mL
same,MIC Escherichia coli (GC 4559),[2]; 5×10^5 CFU/mL,32 µg/mL
same,MIC Escherichia coli (GC 4560),[2]; 5×10^5 CFU/mL,4 µg/mL
same,MIC Streptococcus agalactiae (GC 4564),"[3]; broth dilution, 5×10^5 CFU/mL",0.25 µg/mL
same,MIC Streptococcus pneumoniae (GC 1894),"[3]; broth dilution, 5×10^5 CFU/mL",<0.06 µg/mL
same,MIC Streptococcus pneumoniae (GC 4565),"[3]; broth dilution, 5×10^5 CFU/mL",0.12 µg/mL
same,MIC Streptococcus pneumonine (ATCC 6301),"[3]; broth dilution, 5×10^5 CFU/mL",0.25 µg/mL
same,MIC Streptococcus pyogenes (GC 4563),"[3]; broth dilution, 5×10^5 CFU/mL",0.5 µg/mL
same,MIC Coagulase Negative Staphylococcus (GC 4547),[4]; [5],4 µg/mL
same,MIC Coagulase Negative Staphylococcus (GC 4548),[4]; [5],2 µg/mL
same,MIC Coagulase Negative Staphylococcus (GC 4549),[4]; [5],2 µg/mL
same,MIC Coagulase Negative Staphylococcus (GC 4551),[4]; [5],4 µg/mL
same,MIC Coagulase Negative Staphylococcus (GC 6257),[4]; [5],2 µg/mL
same,MIC Staphylococcus aureus-SMITH (GC 4543),[4]; [5],2 µg/mL
same,MIC Staphylococcus haemolyticus (GC 4546),[4]; [5],2 µg/mL
same,MIC Staphylococcus aureus (ATCC 29213),[4],2 µg/mL
same,MIC Staphylococcus aureus (ATCC 29213),[4]; [6],2 µg/mL
same,MIC Staphylococcus aureus (GC 1131),[4],4 µg/mL
same,MIC Staphylococcus aureus (GC 1131),[4]; [6],4 µg/mL
same,MIC Staphylococcus aureus (GC 3051),[4],2 µg/mL
same,MIC Staphylococcus aureus (GC 3051),[4]; [6],2 µg/mL
same,MIC Staphylococcus aureus (GC 3053),[4],2 µg/mL
same,MIC Staphylococcus aureus (GC 3053),[4]; [6],2 µg/mL
same,MIC Staphylococcus aureus (GC 4541),[4],2 µg/mL
same,MIC Staphylococcus aureus (GC 4541),[4]; [6],2 µg/mL
same,MIC Staphylococcus aureus (GC 4542),[4],2 µg/mL
same,MIC Staphylococcus aureus (GC 4542),[4]; [6],2 µg/mL
same,MIC Staphylococcus aureus-SMITH (GC 4543),"[4]; strain GC 4543, broth dilution, 18 hours at 35° C.",2 µg/mL
same,MIC Staphylococcus aureus (GC 4544),[4],4 µg/mL
same,MIC Staphylococcus aureus (GC 4544),[4]; [6],4 µg/mL
same,MIC Staphylococcus aureus (GC 4545),[4],2 µg/mL
same,MIC Staphylococcus aureus (GC 4545),[4]; [6],2 µg/mL
same,MIC Staphylococcus haemolyticus (GC 4546),"[4]; strain GC 4546, broth dilution, 18 hours at 35° C.",2 µg/mL
same,MIC Coagulase Negative Staphylococcus (GC 4547),"[4]; strain GC 4547, broth dilution, 18 hours at 35° C.",4 µg/mL
same,MIC Coagulase Negative Staphylococcus (GC 4548),"[4]; strain GC 4548, broth dilution, 18 hours at 35° C.",2 µg/mL
same,MIC Coagulase Negative Staphylococcus (GC 4549),"[4]; strain GC 4549, broth dilution, 18 hours at 35° C.",2 µg/mL
same,MIC Coagulase Negative Staphylococcus (GC 4551),"[4]; strain GC 4551, broth dilution, 18 hours at 35° C.",4 µg/mL
same,MIC Coagulase Negative Staphylococcus (GC 6257),"[4]; strain GC 6257, broth dilution, 18 hours at 35° C.",2 µg/mL
"CC(c1ccccc1)C1NC(=O)CNC(=O)C(CO)NC(=O)C(C(O)C2CNC(=N)N2C2OC(CO)C(O)C(O)C2O)NC(=O)C(C(O)C2CNC(=N)N2)NC(=O)C(Cc2ccc(OC3OC(CO)C(OC4OC5COC6(CCSCC6)OC5C(O)C4O)C(O)C3O)cc2)NC1=O (stereo not drawn) [Example 217, Cyclo[glycyl-β-methylphenylalanyl-O-[4-O-[4,6-O-(tetrahydrothiopyran-4-ylidene)hexopyranosyl]hexopyranosyl]tyrosyl-3-(2-iminoimidazolidin-4-yl)seryl-3-(3-hexopyranosyl-2-iminoimidazolidin-4-yl)serylseryl]]",MIC Enterococcus avium (GC 4558),[1]; Enterococcus avium (GC 4558),16 µg/mL
same,MIC Enterococcus faecalis (ATCC 29212),[1]; Enterococcus faecalis (ATCC 29212),16 µg/mL
same,MIC Enterococcus faecalis (GC 2242),[1]; Enterococcus faecalis (GC 2242),16 µg/mL
same,MIC Enterococcus faecalis (GC 2691),[1]; Enterococcus faecalis (GC 2691),16 µg/mL
same,MIC Enterococcus faecalis (GC 3059),[1]; Enterococcus faecalis (GC 3059),32 µg/mL
same,MIC Enterococcus faecalis (GC 4552),[1]; Enterococcus faecalis (GC 4552),16 µg/mL
same,MIC Enterococcus faecalis (GC 4553),[1]; Enterococcus faecalis (GC 4553),32 µg/mL
same,MIC Enterococcus faecalis (GC 4554),[1]; Enterococcus faecalis (GC 4554),32 µg/mL
same,MIC Enterococcus faecalis (GC 6189),[1]; Enterococcus faecalis (GC 6189),16 µg/mL
same,MIC Enterococcus faecium (GC 2243),[1]; Enterococcus faecium (GC 2243),16 µg/mL
same,MIC Enterococcus faecium (GC 4556),[1]; Enterococcus faecium (GC 4556),16 µg/mL
same,MIC Enterococcus faecium (GC 4557),[1]; Enterococcus faecium (GC 4557),8 µg/mL
same,MIC Enterococcus avium (GC 4558),[1]; [7],16 µg/mL
same,MIC Enterococcus faecalis (ATCC 29212),[1]; [7],16 µg/mL
same,MIC Enterococcus faecalis (GC 2242),[1]; [7],16 µg/mL
same,MIC Enterococcus faecalis (GC 2691),[1]; [7],16 µg/mL
same,MIC Enterococcus faecalis (GC 3059),[1]; [7],32 µg/mL
same,MIC Enterococcus faecalis (GC 4552),[1]; [7],16 µg/mL
same,MIC Enterococcus faecalis (GC 4553),[1]; [7],32 µg/mL
same,MIC Enterococcus faecalis (GC 4554),[1]; [7],32 µg/mL
same,MIC Enterococcus faecalis (GC 6189),[1]; [7],16 µg/mL
same,MIC Enterococcus faecium (GC 2243),[1]; [7],16 µg/mL
same,MIC Enterococcus faecium (GC 4556),[1]; [7],16 µg/mL
same,MIC Enterococcus faecium (GC 4557),[1]; [7],8 µg/mL
same,MIC Escherichia coli (ATCC 25922),[2]; Escherichia coli (ATCC 25922),64 µg/mL
same,MIC Escherichia coli (GC 4559),[2]; Escherichia coli (GC 4559),32 µg/mL
same,MIC Escherichia coli (GC 4560),[2]; Escherichia coli (GC 4560),2 µg/mL
same,MIC Streptococcus agalactiae (GC 4564),[3]; Streptococcus agalactiae (GC 4564),2 µg/mL
same,MIC Streptococcus pneumoniae (ATCC 6301),[3]; Streptococcus pneumoniae (ATCC 6301),1 µg/mL
same,MIC Streptococcus pneumoniae (GC 1894),[3]; Streptococcus pneumoniae (GC 1894),0.25 µg/mL
same,MIC Streptococcus pneumoniae (GC 4565),[3]; Streptococcus pneumoniae (GC 4565),0.5 µg/mL
same,MIC Streptococcus pyogenes (GC 4563),[3]; Streptococcus pyogenes (GC 4563),1 µg/mL
same,MIC Streptococcus agalactiae (GC 4564),[3]; [7],2 µg/mL
same,MIC Streptococcus pneumoniae (ATCC 6301),[3]; [7],1 µg/mL
same,MIC Streptococcus pneumoniae (GC 1894),[3]; [7],0.25 µg/mL
same,MIC Streptococcus pneumoniae (GC 4565),[3]; [7],0.5 µg/mL
same,MIC Streptococcus pyogenes (GC 4563),[3]; [7],1 µg/mL
same,MIC Staphylococcus aureus (ATCC 29213),[4],4 µg/mL
same,MIC Staphylococcus aureus (GC 1131),[4],4 µg/mL
same,MIC Staphylococcus aureus (GC 3051),[4],4 µg/mL
same,MIC Staphylococcus aureus (GC 3053),[4],8 µg/mL
same,MIC Staphylococcus aureus (GC 4541),[4],4 µg/mL
same,MIC Staphylococcus aureus (GC 4542),[4],4 µg/mL
same,MIC Staphylococcus aureus-SMITH (GC 4543),[4]; strain GC 4543,2 µg/mL
same,MIC Staphylococcus aureus (GC 4544),[4],8 µg/mL
same,MIC Staphylococcus aureus (GC 4545),[4],4 µg/mL
same,MIC Staphylococcus haemolyticus (GC 4546),[4]; strain GC 4546,2 µg/mL
same,MIC Coagulase Negative Staphylococcus (GC 4547),[4]; strain GC 4547,4 µg/mL
same,MIC Coagulase Negative Staphylococcus (GC 4548),[4]; strain GC 4548,1 µg/mL
same,MIC Coagulase Negative Staphylococcus (GC 4549),[4]; strain GC 4549,2 µg/mL
same,MIC Coagulase Negative Staphylococcus (GC 4551),[4]; strain GC 4551,8 µg/mL
